“Also recorded” adds a separate entry of the source.
Experiments:
Tubulin protein = molecular target: T1, Tubulin protein (Sus scrofa, UniProt P02550+P02554); assay: In vitro tubulin polymerization assay (turbidity at 350 nm); assay type: biochemical, porcine; details: 20 minutes, 37° C.
T1 construct: Tubulin protein (>99% pure, extracted from porcine brain); from tissue; host or cells: porcine brain
Method: Tubulin protein (>99% pure, extracted from porcine brain) was reconstituted in buffer solution (80 mM PIPES pH 6.9, 2 mM MgCl2, 0.5 mM EGTA, and 10% (v/v) glycerol) to a concentration of 1 mg/mL. 100 μL of this tubulin solution was added per well of a black, 96-well plate, which had been warmed to 37° C. prior to the experiment. This was followed by the addition of either guanosine triphosphate (GTP), Paclitaxel (PTX), or ODDA-PTX-CyD, where the final concentration in each respective well was 1 mM GTP, 10 μM PTX, or 10 μM ODDA-PTX-CyD. Changes in turbidity of the samples were monitored via 96-well plate reader at 350 nm, where a recorded increase in optical density supports the formation of microtubules in solution. Each set of conditions were measured in triplicate and monitored over 20 minutes at 37° C.

[1] = Aqueous solubility tests in milliQ water or dPBS
Method: Solubility Tests: To verify ODDA-PTX aqueous solubility, characterization methods in milliQ water or dPBS were performed.

T1 sequence (P02554 whole entry): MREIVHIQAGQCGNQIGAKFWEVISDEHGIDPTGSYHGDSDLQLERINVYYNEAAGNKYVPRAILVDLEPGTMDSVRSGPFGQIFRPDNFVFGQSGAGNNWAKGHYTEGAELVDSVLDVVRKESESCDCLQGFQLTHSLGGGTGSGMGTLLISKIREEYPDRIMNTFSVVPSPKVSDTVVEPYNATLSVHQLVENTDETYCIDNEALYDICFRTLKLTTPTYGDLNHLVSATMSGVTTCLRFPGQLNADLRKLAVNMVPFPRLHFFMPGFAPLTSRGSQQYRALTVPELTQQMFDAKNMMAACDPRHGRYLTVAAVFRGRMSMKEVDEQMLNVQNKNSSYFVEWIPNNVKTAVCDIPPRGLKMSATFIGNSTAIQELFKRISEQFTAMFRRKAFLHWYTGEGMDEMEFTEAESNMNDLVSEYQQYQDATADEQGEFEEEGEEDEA
T1 sequence (P02550 whole entry): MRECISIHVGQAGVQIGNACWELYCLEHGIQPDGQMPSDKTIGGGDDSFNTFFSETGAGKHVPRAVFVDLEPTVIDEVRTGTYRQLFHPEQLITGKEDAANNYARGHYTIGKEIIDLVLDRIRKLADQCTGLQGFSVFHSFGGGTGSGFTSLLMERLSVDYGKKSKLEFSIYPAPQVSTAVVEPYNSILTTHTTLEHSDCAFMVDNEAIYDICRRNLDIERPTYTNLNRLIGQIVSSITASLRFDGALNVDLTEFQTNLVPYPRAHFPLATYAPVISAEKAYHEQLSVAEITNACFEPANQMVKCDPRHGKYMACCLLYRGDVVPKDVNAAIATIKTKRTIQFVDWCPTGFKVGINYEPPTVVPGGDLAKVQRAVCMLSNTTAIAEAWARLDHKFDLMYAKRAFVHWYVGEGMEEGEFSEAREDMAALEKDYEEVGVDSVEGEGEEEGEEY

Compound: Nc1nc2c(ncn2[C@@H]2O[C@H](COP(=O)(O)OP(=O)(O)OP(=O)(O)O)[C@@H](O)[C@H]2O)c(=O)[nH]1 [GTP, guanosine triphosphate]
- change in optical density (microtubule formation) (Tubulin protein; 1 mM GTP): did not portray significant increases in optical density

Compound: CC(=O)O[C@H]1C(=O)[C@@]2(C)[C@H]([C@H](OC(=O)c3ccccc3)[C@]3(O)C[C@H](OC(=O)[C@H](OC(=O)CCCCCCCCCCCCCCCCC(=O)O)[C@@H](NC(=O)c4ccccc4)c4ccccc4)C(C)=C1C3(C)C)[C@]1(OC(C)=O)CO[C@@H]1C[C@@H]2O [ODDA-PTX, 1,18-octadecandioic acid-paclitaxel]
- solubility in water or buffer alone (in words) ([1]; water alone / buffer alone): insolubility; also recorded: not soluble in water alone
- aqueous solubility with respect to ODDA-PTX ([1]; with respect to ODDA-PTX): 21 µg/mL

Compound: CC(=O)O[C@H]1C(=O)[C@@]2(C)[C@H]([C@H](OC(=O)c3ccccc3)[C@]3(O)C[C@H](OC(=O)[C@H](O)[C@@H](NC(=O)c4ccccc4)c4ccccc4)C(C)=C1C3(C)C)[C@]1(OC(C)=O)CO[C@@H]1C[C@@H]2O [paclitaxel]
- change in optical density (microtubule formation) (Tubulin protein; 10 μM): resulted in the formation of microtubules
